We go through ten molecules from ChEMBL document CHEMBL1201862, “PubChem BioAssay data set” (2004).

Calls of active or inactive are those of the source.

Experiment [1] in a line: viability loss in THP-1 monocytes – THP-1 cells, cytotoxicity control for Vif-APOBEC3G degradation inhibitor project, dose response (AID 1117359). In kind it is functional. The settings on record: THP-1.
Experiment [2] concerns the target Paired box protein Pax-8 (Homo sapiens, UniProt Q06710). The experiment in a line: PAX8 transcriptional activity inhibition in RMG-I – RMG-I cells, luciferase, cherry-pick, dose response (AID 687027).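 Note: luciferase reporter driven by Pax8 target thyroperoxidase promoter measured by SteadyGlo luminescence.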 The format is functional, cell-based.
The nature of experiment [3]: toxicity toward immortalized ovarian surface epithelium – cell-based, plate reader, dry powder samples, cytotoxicity control for PAX8 inhibitor project, dose response (AID 743045). The format is functional.
Experiment [4] can be described thus: OVCAR-3 cell viability loss – plate reader, dry powder samples, PAX8 inhibitor project, dose response (AID 743044). In kind it is functional, cell-based.
The nature of experiment [5]: IGROV1 cell killing – plate reader, dry powder samples, PAX8 inhibitor project, dose response (AID 743043). In kind it is functional, cell-based. To be noted: IGROV-1.
Experiment [6] is described as follows: general cell-killing toxicity readout – plate reader, dry powder samples, cytotoxicity control for PAX8 inhibitor project, dose response (AID 743021). The format is functional, cell-based.
Experiment [7] can be described thus: OVCAR8 cell viability loss – plate reader, dry powder samples, PAX8 project, dose response (AID 743197). In kind it is functional, cell-based. The settings on record: OVCAR-8.
A short description of experiment [8]: A2780 cell killing – plate reader, dry powder samples, cytotoxicity control, dose response (AID 743046). The format is functional, cell-based.
Experiment [9] can be described thus: growth inhibition of yeast DHODH-expressing 3D7 parasites – SYBR Green, dry powder samples, dose response (AID 1159570).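 Note: parasite growth measured after 72 hours of compound exposure.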 In kind it is functional, cell-based.
The nature of experiment [10]: Dd2 parasite growth inhibition in erythrocytes – SYBR Green, dry powder samples, set 9, dose response (AID 1159568). The format is functional, cell-based.
Experiment [11] is described as follows: P. falciparum Dd2 growth inhibitors, dose response, SYBR Green, cherry-picked samples (AID 1159567). The format is functional, cell-based.
The nature of experiment [12]: Dd2 malaria parasite growth inhibition potency – SYBR Green, dry powder samples, dose response (AID 1159566).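 Note: potency for growth inhibition with lower SYBR green DNA signal.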 In kind it is functional, cell-based.
The nature of experiment [13]: Plasmodium falciparum Dd2 Sybr green parasite growth Measured in Cell-Based and Microorganism Combination System Using Plate Reader - 2153-01_Inhibitor_Dose_DryPowder_Activity_Set3. In kind it is functional.
The nature of experiment [14]: growth inhibition of PfATP4-mutant resistant parasites – NITD609-resistant line, SYBR Green, dry powder, dose response (AID 1159571).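 Note: parasites synchronized at ring stage by sorbitol before testing.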 In kind it is functional, cell-based.
A short description of experiment [15]: cytotoxicity in MITF-independent A375 cells – cell-based, CellTiter-Glo luminescence, dry powder, set 4, counter-screen for MITF inhibitor project, dose response (AID 624364).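 Note: A375 melanoma cells are MITF independent so this is a counter screen.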 The format is functional. The settings on record: A-375. A general note: ATP-based viability assays read luminescence as a measure of living cells.
Experiment [16] in a line: viability loss in MITF-independent A375 cells – cell-based, CellTiter-Glo luminescence, dry powder, set 2, counter-screen for MITF inhibitor project, dose response (AID 624489).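 Note: actives are compounds lowering A375 viability meaning general cytotoxicity.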 In kind it is functional. To be noted: A-375.
Experiment [17] has as its target Metabotropic glutamate receptor 5 (Rattus norvegicus, UniProt P31424). Nature of the experiment: Identification of a glycine sulfonamide based non-MPEP site positive allosteric potentiator (PAM) of mGlu5 (calcium_assay). The format is functional.
Experiment [18] addresses Mitogen-activated protein kinase 10 (Homo sapiens, UniProt P53779). The experiment in a line: Dose response biochemical screening assay for inhibitors of c-Jun N-Terminal Kinase 3 (JNK3). [Related pubchem assays: 746 ].
Experiment [19] can be described thus: toxicity to human HepG2 hepatoma cells – cell-based, plate reader, dry powder samples, cytotoxicity control, dose response (AID 1159569).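 Note: inhibitor potency with signal falling toward the positive control level.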 In kind it is functional.
A short description of experiment [20]: toxicity to human hepatoma HepG2 cells – cell-based, cherry-picked samples, cytotoxicity control, dose response (AID 1159577). The format is functional.

Paired box protein Pax-8, sequence (Q06710 whole entry): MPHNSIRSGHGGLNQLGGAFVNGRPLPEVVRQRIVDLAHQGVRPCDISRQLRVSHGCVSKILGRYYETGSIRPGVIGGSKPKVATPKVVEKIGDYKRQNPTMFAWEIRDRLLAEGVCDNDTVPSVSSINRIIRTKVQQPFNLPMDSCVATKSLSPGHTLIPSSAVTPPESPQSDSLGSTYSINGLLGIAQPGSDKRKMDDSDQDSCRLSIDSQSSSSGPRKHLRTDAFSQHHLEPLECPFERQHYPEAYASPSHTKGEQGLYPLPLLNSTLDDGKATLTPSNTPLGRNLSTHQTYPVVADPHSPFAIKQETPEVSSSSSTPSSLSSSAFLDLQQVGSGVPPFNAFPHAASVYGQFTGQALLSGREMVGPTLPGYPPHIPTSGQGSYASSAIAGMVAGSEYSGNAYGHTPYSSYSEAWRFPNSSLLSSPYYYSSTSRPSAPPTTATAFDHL
Metabotropic glutamate receptor 5, sequence (P31424 whole entry): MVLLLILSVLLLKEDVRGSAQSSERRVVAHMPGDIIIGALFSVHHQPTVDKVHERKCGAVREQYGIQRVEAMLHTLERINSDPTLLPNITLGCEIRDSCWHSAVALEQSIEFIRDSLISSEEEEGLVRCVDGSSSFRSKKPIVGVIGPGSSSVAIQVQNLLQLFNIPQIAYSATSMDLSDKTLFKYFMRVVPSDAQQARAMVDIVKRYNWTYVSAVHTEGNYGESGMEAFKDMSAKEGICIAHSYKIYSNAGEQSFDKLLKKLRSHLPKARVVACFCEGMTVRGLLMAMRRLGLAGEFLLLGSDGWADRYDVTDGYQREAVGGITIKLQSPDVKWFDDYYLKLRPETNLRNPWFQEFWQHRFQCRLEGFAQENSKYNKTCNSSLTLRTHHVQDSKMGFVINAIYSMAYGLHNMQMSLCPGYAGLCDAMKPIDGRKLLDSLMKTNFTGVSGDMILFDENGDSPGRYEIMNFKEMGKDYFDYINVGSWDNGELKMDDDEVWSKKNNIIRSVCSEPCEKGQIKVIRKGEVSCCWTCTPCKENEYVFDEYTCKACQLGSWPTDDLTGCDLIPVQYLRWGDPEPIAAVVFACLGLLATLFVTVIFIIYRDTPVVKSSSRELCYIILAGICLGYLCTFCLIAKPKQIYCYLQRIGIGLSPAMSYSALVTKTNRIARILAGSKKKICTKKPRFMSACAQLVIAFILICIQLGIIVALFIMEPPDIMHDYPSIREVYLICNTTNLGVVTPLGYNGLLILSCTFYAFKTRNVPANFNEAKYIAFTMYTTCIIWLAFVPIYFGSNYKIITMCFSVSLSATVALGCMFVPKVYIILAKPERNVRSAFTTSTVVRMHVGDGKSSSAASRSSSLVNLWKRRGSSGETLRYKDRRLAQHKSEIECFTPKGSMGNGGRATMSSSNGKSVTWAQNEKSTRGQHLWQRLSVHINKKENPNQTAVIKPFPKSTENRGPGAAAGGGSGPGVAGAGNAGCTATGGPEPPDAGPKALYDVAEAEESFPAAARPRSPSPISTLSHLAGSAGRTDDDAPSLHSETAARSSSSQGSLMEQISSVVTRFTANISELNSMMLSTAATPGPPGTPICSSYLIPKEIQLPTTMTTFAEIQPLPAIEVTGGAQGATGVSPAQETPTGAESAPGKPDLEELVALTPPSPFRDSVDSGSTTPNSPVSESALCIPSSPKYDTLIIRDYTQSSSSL
Mitogen-activated protein kinase 10, sequence (P53779 whole entry): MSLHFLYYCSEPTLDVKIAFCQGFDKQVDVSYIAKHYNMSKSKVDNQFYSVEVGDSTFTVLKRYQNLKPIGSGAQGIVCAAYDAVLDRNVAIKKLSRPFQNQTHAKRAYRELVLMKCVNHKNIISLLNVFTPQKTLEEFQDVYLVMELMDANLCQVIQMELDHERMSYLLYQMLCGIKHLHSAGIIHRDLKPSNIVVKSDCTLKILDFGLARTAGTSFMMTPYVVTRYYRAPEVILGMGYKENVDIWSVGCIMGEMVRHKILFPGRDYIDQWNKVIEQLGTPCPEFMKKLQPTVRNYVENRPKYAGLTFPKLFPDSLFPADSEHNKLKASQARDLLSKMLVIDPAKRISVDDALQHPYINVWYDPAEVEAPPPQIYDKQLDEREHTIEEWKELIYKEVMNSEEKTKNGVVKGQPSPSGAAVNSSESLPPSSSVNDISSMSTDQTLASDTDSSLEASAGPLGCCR

For the molecule `CC12CCC(C(=O)Nc3cc(F)ccc3F)(CC1=O)C2(C)C` (stereo unspecified), the cytotoxic concentration (CC50) (commonly the concentration at which the toxic effect on the cells reaches its halfway point) in experiment [1] was > 40 µM (active).
For `COc1ccc(NC(=O)N2C[C@@H]3N[C@H](C2)[C@@H]3c2ccc(-c3ccc(OC)cc3)cc2)cc1`, the AC50 (commonly the concentration at which the activity in the assay is half-maximal) in [2] is 13.7 µM (active); in experiment [3] it was 23.3 µM (active); in experiment [4] it was 46.6 µM (active); in experiment [5], 26.6 µM (active); in experiment [6], 32.5 µM (active); in [7], 48.5 µM (active).
In the case of `C[C@@H]1CN([C@@H](C)CO)C(=O)c2cc(NC(=O)Nc3ccc(F)cc3)ccc2O[C@@H](C)CCCCO[C@@H]1CN(C)Cc1ccc(C(F)(F)F)cc1`, the half-maximal activity concentration (AC50) in experiment [2] was 9.46 µM (active); in experiment [8] it was 0.363 µM (active); in [4], 33.6 µM (active); in experiment [7], 39.9 µM (active).
Regarding `CCCNC(=O)N1[C@H](C#N)[C@H](c2ccc(C#Cc3cccc(F)c3)cc2)[C@H]1CO`, the concentration at half-maximal activity (AC50) in [9] was 8.92 µM (active); in experiment [10], 0.00951 µM (active); in experiment [11], < 0.3 µM (active); in experiment [12], 0.00355 µM (active); in experiment [13], 0.0243 µM (active); in [14], 0.00678 µM (active).
Consider `O=C(NC1=C(c2ccc(OC(F)(F)F)cc2)C(=O)c2ccccc2C1=O)c1ccc(Br)cc1`, for which the AC50 in [15] is 41.1 µM (active); in experiment [16] it was 36.5 µM (active).
Consider `CS(=O)(=O)N(CC(=O)NC1CCCCC1)c1cc(C(F)(F)F)ccc1Cl`, for which, in experiment [17], the half-maximal effective concentration (EC50) – broadly, the concentration that produces a half-maximal response – is 10 µM (inconclusive).
The same measure, in the same setting: to `CC(C(=O)Nc1ccc(Cl)cn1)N(c1ccccc1Cl)S(C)(=O)=O` (stereo unspecified) belongs > 30 µM (inactive).
With `O=C(c1cccc2c1-c1ccccc1/C2=N/O)N1CCCCC1`, the concentration for half-maximal inhibition (IC50) (as a rule, the point on the concentration scale where inhibition reaches its midpoint) in experiment [18] was 40.7 µM (not active).
As to `COc1ccc(-c2ccc([C@H]3[C@@H](C#N)N(C(=O)NC4CCCC4)[C@@H]3CO)cc2)cc1`, the AC50 in experiment [9] was 5.29 µM (active); in experiment [19], 81.4 µM (active); in experiment [11], < 0.3 µM (active); in experiment [12] it was 0.23 µM (active); in [20] it was > 39 µM (inactive); in [13], 0.208 µM (active). Also, the concentration at half-maximal activity (AC50) in experiment [14] was 0.248 µM (active).
In the case of `CC(=O)NC1=C(c2cccc(Cl)c2)C(=O)c2ccccc2C1=O`, the AC50 in experiment [15] is 14.4 µM (active); in experiment [16] it was 7.22 µM (active).
